Assay results as given in PubChem BioAssay AID256 (DTP/NCI, 2004).
Inconclusive results and toxic doses are left out. How the source made its calls: active means survival T/C of 150% or more; inactive means T/C below 125% in these data.

Test system: CD2F1 mice, L1210 leukemia ip, survival T/C
Assay: NCI In Vivo Anticancer Drug Screen. Data for tumor model L1210 Leukemia (intraperitoneal) in CD2F1 (CDF1) mice
Conditions: endpoint: mean survival time, higher = longer survival
How it was run: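 Tumor-bearing mice (transplanted tumor) were split into treated and vehicle control groups, and the measured endpoint of each treated group was divided by that of its vehicle controls.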

[1] = dose: 100.0 mg/kg/injection, schedule: Q01DX001 (ip), vehicle: Klucel (hydroxypropylcellulose) (HPC)
[2] = dose: 25.0 mg/kg/injection, schedule: Q04DX003 (ip), vehicle: saline with Tween-80
[3] = dose: 100.0 mg/kg/injection, schedule: Q04DX003 (ip), vehicle: saline with Tween-80
[4] = dose: 100.0 mg/kg/injection, schedule: Q01DX009 (ip), vehicle: saline with Tween-80
[5] = dose: 200.0 mg/kg/injection, schedule: Q01DX009 (ip), vehicle: saline with Tween-80
[6] = dose: 400.0 mg/kg/injection, schedule: Q01DX009 (ip), vehicle: saline with Tween-80
[7] = dose: 200.0 mg/kg/injection, schedule: Q04DX003 (ip), vehicle: saline with Tween-80
[8] = dose: 400.0 mg/kg/injection, schedule: Q04DX003 (ip), vehicle: saline with Tween-80
[9] = dose: 100.0 mg/kg/injection, schedule: Q04DX003 (ip), vehicle: saline
[10] = dose: 200.0 mg/kg/injection, schedule: Q04DX003 (ip), vehicle: saline
[11] = dose: 6.25 mg/kg/injection, schedule: Q04DX003 (ip), vehicle: saline with Tween-80
[12] = dose: 100.0 mg/kg/injection, schedule: Q01DX009 (ip), vehicle: other
[13] = dose: 200.0 mg/kg/injection, schedule: Q01DX009 (ip), vehicle: other

Measured: T/C

CC(C)(C)OC(=O)N/N=C/c1ccc2c(c1)CCC2
inactive: [1] 101 % of control | dose: 200.0 mg/kg/injection, schedule: Q01DX001 (ip), vehicle: Klucel (hydroxypropylcellulose) (HPC) 101 % of control | dose: 400.0 mg/kg/injection, schedule: Q01DX001 (ip), vehicle: Klucel (hydroxypropylcellulose) (HPC) 104 % of control

O=C1C(=O)C(c2ccccc2)(c2ccccc2)c2cc(-c3ccccc3)c(-c3ccccc3)cc21
inactive: [2] 93 % of control | dose: 50.0 mg/kg/injection, schedule: Q04DX003 (ip), vehicle: saline with Tween-80 89 % of control | [3] 93 % of control

COc1cc(/C=N/NC(=O)COc2ccccc2)ccc1O
inactive: [4] 89 % of control | [5] 89 % of control | [6] 94 % of control

CCC(C)C(C(=O)O)C(=O)O (configuration not stated)
inactive: dose: 75.0 mg/kg/injection, schedule: Q01DX001 (ip), vehicle: saline 100 % of control | dose: 150.0 mg/kg/injection, schedule: Q01DX001 (ip), vehicle: saline 100 % of control | dose: 300.0 mg/kg/injection, schedule: Q01DX001 (ip), vehicle: saline 102 % of control

CC(C)CCOC(=O)Nc1cccc(O)c1
inactive: [3] 98 % of control | [7] 100 % of control | [8] 101 % of control

O=C(CCc1ccc(O)cc1)c1c(O)cc(O)cc1OC1OC(CO)C(O)C(O)C1O (configuration not stated)
inactive: dose: 100.0 mg/kg/injection, schedule: Q01DX001 (ip), vehicle: saline 102 % of control | dose: 200.0 mg/kg/injection, schedule: Q01DX001 (ip), vehicle: saline 98 % of control | dose: 400.0 mg/kg/injection, schedule: Q01DX001 (ip), vehicle: saline 104 % of control

NCc1cn(C2OC(CO)C(O)C2O)c2ncnc(N)c12 (configuration not stated)
inactive: dose: 3.13 mg/kg/injection, schedule: Q01DX005 (ip), vehicle: water 118 % of control | dose: 6.25 mg/kg/injection, schedule: Q01DX005 (ip), vehicle: water 95 % of control

CCCCCCCCCCCCCCCCCC(=O)NN
inactive: [4] 93 % of control | [3] 91 % of control | [5] 104 % of control | [7] 96 % of control | dose: 266.0 mg/kg/injection, schedule: Q01DX009 (ip), vehicle: saline with Tween-80 119 % of control | [8] 109 % of control | dose: 600.0 mg/kg/injection, schedule: Q01DX009 (ip), vehicle: saline with Tween-80 119 % of control

Clc1ccc(C2(c3ccncc3)OCCO2)cc1
inactive: [9] 101 % of control | [10] 101 % of control

CCCC[NH-].CCCC[NH-].O=C(O)CC(=O)O.[Pt+2]
inactive: [11] 96 % of control | [2] 96 % of control | [3] 98 % of control

Nc1ccccc1-c1ccc([N+](=O)[O-])cc1
inactive: [3] 94 % of control | [7] 92 % of control | [8] 101 % of control

Cc1[nH]nc2c1CCCC2
inactive: [12] 101 % of control | [13] 97 % of control

C1CNC2NCCNC2N1 (configuration not stated)
inactive: [4] 101 % of control | dose: 100.0 mg/kg/injection, schedule: Q04DX003 (ip), vehicle: saline sonified 109 % of control | [5] 102 % of control | dose: 200.0 mg/kg/injection, schedule: Q04DX003 (ip), vehicle: saline sonified 103 % of control | [6] 108 % of control | dose: 400.0 mg/kg/injection, schedule: Q04DX003 (ip), vehicle: saline sonified 115 % of control

CC1CCCN(N=Nc2ccccc2-c2nc(N)c3ccccc3n2)C1 (configuration not stated)
inactive: dose: 100.0 mg/kg/injection, schedule: Q04DX002 (ip), vehicle: Klucel (hydroxypropylcellulose) (HPC) 88 % of control | dose: 200.0 mg/kg/injection, schedule: Q04DX002 (ip), vehicle: Klucel (hydroxypropylcellulose) (HPC) 92 % of control | dose: 400.0 mg/kg/injection, schedule: Q04DX002 (ip), vehicle: Klucel (hydroxypropylcellulose) (HPC) 95 % of control

O=c1cc(NCCCCOc2ccccc2)[nH]c(=O)[nH]1
inactive: dose: 100.0 mg/kg/injection, schedule: Q01DX001 (ip), vehicle: saline with Tween-80 96 % of control | dose: 200.0 mg/kg/injection, schedule: Q01DX001 (ip), vehicle: saline with Tween-80 93 % of control | dose: 400.0 mg/kg/injection, schedule: Q01DX001 (ip), vehicle: saline with Tween-80 96 % of control

COc1ccc(OC)c(C2C(C#N)C(C=O)NC(C=O)C2C#N)c1 (configuration not stated)
inactive: [12] 100 % of control | [13] 104 % of control | dose: 400.0 mg/kg/injection, schedule: Q01DX009 (ip), vehicle: other 100 % of control

Cc1cc(C)c(COCc2cc(C)c(C)cc2C)cc1C
inactive: dose: 25.0 mg/kg/injection, schedule: Q01DX009 (ip), vehicle: water 97 % of control | dose: 50.0 mg/kg/injection, schedule: Q01DX009 (ip), vehicle: water 86 % of control | dose: 100.0 mg/kg/injection, schedule: Q01DX009 (ip), vehicle: water 92 % of control | dose: 200.0 mg/kg/injection, schedule: Q01DX009 (ip), vehicle: water 101 % of control | dose: 400.0 mg/kg/injection, schedule: Q01DX009 (ip), vehicle: water 103 % of control

COc1ccc(-c2sc(/N=C/c3ccc(-c4ccccc4)cc3)c(C#N)c2C)cc1OC
inactive: [4] 97 % of control | [5] 100 % of control | [6] 91 % of control

C[N+](C)(C)CC[N+](C)(C)C
inactive: dose: 50.0 mg/kg/injection, schedule: Q04DX003 (ip), vehicle: saline 100 % of control | [9] 103 % of control | [10] 97 % of control

Cc1ccc(C)c(C(=O)c2ccccc2C(N)=O)c1
inactive: dose: 50.0 mg/kg/injection, schedule: Q01DX009 (ip), vehicle: saline with Tween-80 94 % of control | [4] 92 % of control | [5] 88 % of control

CCOC(=O)N[C@H]1CCc2cc(OC)c(OC)c(OC)c2-c2ccc(SC)c(=O)cc21
inactive: dose: 0.38 mg/kg/injection, schedule: Q01DX009 (ip), vehicle: other 103 % of control | dose: 0.75 mg/kg/injection, schedule: Q01DX009 (ip), vehicle: other 108 % of control | dose: 1.5 mg/kg/injection, schedule: Q01DX009 (ip), vehicle: other 114 % of control

Clc1c(Br)nc(Br)nc1C(Cl)(Cl)Cl
inactive: [11] 98 % of control | dose: 12.5 mg/kg/injection, schedule: Q04DX003 (ip), vehicle: saline with Tween-80 98 % of control | [2] 98 % of control

O=c1scc(-c2ccc(Br)cc2)s1
inactive: dose: 12.5 mg/kg/injection, schedule: Q01DX009 (ip), vehicle: Klucel (hydroxypropylcellulose) (HPC) 93 % of control | dose: 25.0 mg/kg/injection, schedule: Q01DX009 (ip), vehicle: Klucel (hydroxypropylcellulose) (HPC) 100 % of control

S=C1NCc2ccccc2N1
inactive: dose: 25.0 mg/kg/injection, schedule: Q01DX001 (ip), vehicle: Klucel (hydroxypropylcellulose) (HPC) 101 % of control | dose: 50.0 mg/kg/injection, schedule: Q01DX001 (ip), vehicle: Klucel (hydroxypropylcellulose) (HPC) 101 % of control | [1] 112 % of control
